Here are results for 26 compounds from patent publication US11498930B2 (BLUERAY THERAPEUTICS (SHANGHAI) CO., LTD., priority 2018, dated 2022).

Where two headings read alike, the source gives them in different places.

Experiment [1] has as its system phosphorylation level of intracellular protein kinase (ERK) in MOLM13 cells. The experiment is described as follows: Phosphorylated protein kinase (p-ERK) cell experiment (AlphaLISA). The class given is cell-based. The procedure: The inhibitory activities of the compounds on the phosphorylation level of intracellular protein kinase (ERK) were determined by AlphaLISA method.
Firstly, the cells were treated with the compounds. The compounds to be tested were subjected to 3-fold dilution with 100% DMSO, and a total of 9 different concentration gradients were set. MOLM13 cells were then seeded into 96-well plates at a density of 30,000 cells per well in a volume of 100 µL per well. […] of DMSO or the test compounds with different concentrations was then transferred into each well, setting two duplicates for each concentration, and the final concentration of DMSO was controlled at 0.5%.
Secondly, the cells were lysed. After 2 hours of cell treatment, the medium was removed, and the cells were washed 3 times with phosphate buffered saline. 50 µL of freshly prepared lysis buffer was added to each well, and the plates were shaken and kept at room temperature for 10 minutes.
Thirdly, the phosphorylated extracellular signal-regulated kinase (p-ERK) was detected by AlphaLISA@ SureFire® Ultra™ p-ERK 1/2 (Thr202/Tyr204) kit (Perkin Elmer, ALSU-PERK-A10K). 10 µL of the above lysate was transferred to a 384-well plate (Perkin Elmer, 6005350), and the phosphorylation level of the extracellular signal-regulated kinase of the sample was detected according to the product instructions. The signal was read using AlphaScreen detector on Spectra max i3 (Molecular Devices). The percentage of inhibition (%) was calculated by the following formula: Inhibition percentage(%)=(1−p-ERK signal of compound-treated cells/p-ERK signal of DMSO-treated cells)*100
For orientation: In Alpha technology, singlet oxygen from a donor bead excites a nearby acceptor bead.

Experiment [2] concerns the target SHP2^E76A protein (Homo sapiens (Human), UniProt Q06124, E76A). The experiment is described as follows: SHP2 enzyme activity inhibition experiment. The class given is biochemical. The following applies: SHP2 enzyme activity, Tables 1.1 and 1.2; read-out: IC50. The procedure:
Compound powders were dissolved in DMSO to prepare mother liquor.
During the experiment, the stock solutions of the compounds were subjected to 3-fold gradient dilution with DMSO, and 10 different test concentrations of each compound were set. […] The protein used was the activated protein SHP^2E76A with amino acid mutation at position 76 of the protein, and the substrate used was DiFMUP (Invitrogen, E12020). […] 50 µL of enzyme solution was added to the detection wells, followed by 50 µL of substrate. […] GraphPad Prism 5 was used for nonlinear regression analysis, and the curve of enzyme activity versus compound concentration was fitted by the equation Y=Bottom+(Top-Bottom)/(1+10^((Log IC50−X)*HillSlope)) to calculate the IC50 value of each compound.

Experiment [3] relates to MOLM-13 cells. The experiment is described as follows: MOLM-13 cell proliferation experiment. The class given is cell-based. The following applies: Homo sapiens, MOLM-13, 72 h, MOLM-13 cell proliferation, 3 days, Tables 3.1 and 3.2; read-out: IC50. As to the method: After 3 days, 5 µL of CellTiter-Glo reagent (Promega, ZG7572) was added to each well, and the plates were kept at room temperature in the dark for 10 minutes. The […] was detected by Spectra max i3 (Molecular Devices). The relative growth rate of the treated cells was compared with that of DMSO control.

Setting [4] is: p-ERK, MOLM13 cells, 2 hours of cell treatment, Tables 2.1 and 2.2, read-out: IC50.

SHP2^E76A protein, sequence (Q06124 whole entry E76A): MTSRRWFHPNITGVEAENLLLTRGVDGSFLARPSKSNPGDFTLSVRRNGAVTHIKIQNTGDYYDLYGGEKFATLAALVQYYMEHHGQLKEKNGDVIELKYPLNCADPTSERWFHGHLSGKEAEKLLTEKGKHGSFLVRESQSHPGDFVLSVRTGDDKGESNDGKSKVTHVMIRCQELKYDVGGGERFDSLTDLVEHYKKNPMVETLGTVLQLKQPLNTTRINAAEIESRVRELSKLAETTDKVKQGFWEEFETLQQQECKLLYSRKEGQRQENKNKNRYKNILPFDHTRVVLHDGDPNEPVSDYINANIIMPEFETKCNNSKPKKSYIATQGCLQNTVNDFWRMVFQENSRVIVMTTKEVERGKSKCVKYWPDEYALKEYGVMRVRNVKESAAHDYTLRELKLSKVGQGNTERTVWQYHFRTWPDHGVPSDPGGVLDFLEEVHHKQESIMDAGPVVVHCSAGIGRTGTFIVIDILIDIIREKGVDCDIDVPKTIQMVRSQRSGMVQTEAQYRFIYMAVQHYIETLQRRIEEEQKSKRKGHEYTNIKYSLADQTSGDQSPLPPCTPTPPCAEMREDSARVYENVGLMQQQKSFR

What is called IC50 is the concentration that inhibits the measured activity by half. For the compound `CC1C[C@@H](N)C2(CCN(c3ncc(Sc4cccc(Cl)c4Cl)c4nncn34)CC2)C1` (stereo partly shown), the IC50 in experiment [1] (setting [4]) is less than 0.1 µM. Take `N[C@@H]1CCCC12CCN(c1ncc(Sc3cccc(NC(=O)c4c(O)nc5n(c4=O)CCCC5)c3Cl)c3nccn13)CC2`: the IC50 in experiment [1] (setting [4]) is less than 0.1 µM. With `NC1CCCN(c2ncc(Sc3cccc(Cl)c3Cl)c3ncnn23)CC1` (stereo not shown) [1-(8-((2,3-dichlorophenyl)thio)-[1,2,4]triazolo[1,5-c]pyrimidin-5-yl)azepan-4-amine], the results for the IC50 in experiment [2] and in experiment [3] were 0.1 to 1 µM and 1 to 10 µM, respectively.

`CC1(N)CCN(c2ncc(Sc3cccc(Cl)c3Cl)c3nccn23)CC1` [1-(8-((2,3-dichlorophenyl)thio)imidazo[1,2-c]pyrimidin-5-yl)-4-methylpiperidin-4-amine]: the half-inhibitory concentration (IC50) in experiment [2] and in experiment [3] was 0.1 to 1 µM throughout.

For `NCC1(c2ccccc2)CCN(c2ncc(Sc3cccc(Cl)c3Cl)c3nncn23)CC1` [(1-(8-((2,3-dichlorophenyl)thio)-[1,2,4]triazolo[4,3-c]pyrimidin-5-yl)-4-phenylpiperidin-4-yl)methanamine], the values for the concentration for half-maximal inhibition (IC50) in experiment [2] and in experiment [3] were less than 0.1 µM and 0.1 to 1 µM, respectively.

Regarding `CC1(CN)CCN(c2ncc(Sc3cccc(Cl)c3Cl)c3nccn23)CC1` [(1-(8-((2,3-dichlorophenyl)thio)imidazo[1,2-c]pyrimidin-5-yl)-4-methylpiperidin-4-yl)methanamine], the IC50 in experiment [2] is less than 0.1 µM; in experiment [3], 0.1 to 1 µM. Consider `CC1C[C@@H](N)C2(CCN(c3ncc(Sc4ccnc(Cl)c4Cl)c4nncn34)CC2)C1` (stereo partly drawn) [(1R)-8-(8-((2,3-dichloropyridin-4-yl)thio)-[1,2,4]triazolo[4,3-c]pyrimidin-5-yl)-3-methyl-8-azaspiro[4.5]decan-1-amine], for which the IC50 in experiment [2] was less than 0.1 µM; in experiment [3] it was 0.1 to 1 µM. Regarding `CC1C[C@@H](N)C2(CCN(c3ncc(Sc4ccnc(N)c4Cl)c4nncn34)CC2)C1` (stereo partly drawn) [(1R)-8-(8-((2-amino-3-chloropyridin-4-yl)thio)-[1,2,4]triazolo[4,3-c]pyrimidin-5-yl)-3-methyl-8-azaspiro[4.5]decan-1-amine], the IC50 in experiment [2] is less than 0.1 µM; in experiment [3] it was 0.1 to 1 µM. For the compound `CC1C[C@@H](N)C2(CCN(c3ncc(Sc4cc(N)nc(Cl)c4Cl)c4nccn34)CC2)C1` (stereo partly drawn) [(1R)-8-(8-((6-amino-2,3-dichloropyridin-4-yl)thio)imidazo[1,2-c]pyrimidin-5-yl)-3-methyl-8-azaspiro[4.5]decan-1-amine], the concentration for half-maximal inhibition (IC50) in experiment [2] and in experiment [3] was less than 0.1 µM throughout. On to `Cc1nccc(Sc2cnc(N3CCC4(CC3)CO[C@@H](C)[C@H]4N)n3ncnc23)c1Cl` [(3S,4S)-8-(8-((3-chloro-2-methylpyridin-4-yl)thio)-[1,2,4]triazolo[1,5-c]pyrimidin-5-yl)-3-methyl-2-oxa-8-azaspiro[4.5]decan-4-amine], for which the IC50 in experiment [2] is 0.1 to 1 µM; in experiment [3] it was 1 to 10 µM.

With `C[C@@H]1OCC2(CCN(c3ncc(Sc4cc(N)nc(Cl)c4Cl)c4nncn34)CC2)[C@@H]1N` [(3S,4S)-8-(8-((6-amino-2,3-dichloropyridin-4-yl)thio)-[1,2,4]triazolo[4,3-c]pyrimidin-5-yl)-3-methyl-2-oxa-8-azaspiro[4.5]decan-4-amine], the IC50 is less than 0.1 µM in experiment [2] and 0.1 to 1 µM in experiment [3]. Regarding `N[C@@H]1CCCN(c2ncc(Sc3cccc(Cl)c3Cl)c3nncn23)CC1` [(R)-1-(8-((2,3-dichlorophenyl)thio)-[1,2,4]triazolo[4,3-c]pyrimidin-5-yl)azepan-4-amine], the IC50 lay in the range of 0.1 to 1 µM in experiment [2] and 1 to 10 µM in experiment [3]. In the same order, the values of `N[C@@H]1CCCC12CCN(c1ncc(Sc3cccc(Cl)c3Cl)c3nncn13)CC2` [(R)-8-(8-((2,3-dichlorophenyl)thio)-[1,2,4]triazolo[4,3-c]pyrimidin-5-yl)-8-azaspiro[4.5]decan-1-amine] are less than 0.1 µM and 0.1 to 1 µM. As to `N[C@@H]1CCCC12CCN(c1ncc(Sc3ccc(Cl)cc3Cl)c3nncn13)CC2` [(R)-8-(8-((2,4-dichlorophenyl)thio)-[1,2,4]triazolo[4,3-c]pyrimidin-5-yl)-8-azaspiro[4.5]decan-1-amine], the results for the IC50 in experiment [2] and in experiment [3] were 0.1 to 1 µM and 1 to 10 µM, respectively. As to `CC(C)c1ccccc1Sc1cnc(N2CCC3(CCC[C@H]3N)CC2)n2cnnc12` [(R)-8-(8-((2-isopropylphenyl)thio)-[1,2,4]triazolo[4,3-c]pyrimidin-5-yl)-8-azaspiro[4.5]decan-1-amine], the figures for the IC50 in experiment [2] and in experiment [3] were 0.1 to 1 µM and 1 to 10 µM, respectively. As for `COc1ccccc1Sc1cnc(N2CCC3(CCC[C@H]3N)CC2)n2cnnc12` [(R)-8-(8-((2-methoxyphenyl)thio)-[1,2,4]triazolo[4,3-c]pyrimidin-5-yl)-8-azaspiro[4.5]decan-1-amine], the IC50 in experiment [2] and in experiment [3] was 0.1 to 1 µM in each case.

In the case of `Nc1cccc(Sc2cnc(N3CCC4(CCC[C@H]4N)CC3)n3ccnc23)c1Cl` [(R)-8-(8-((3-amino-2-chlorophenyl)thio)imidazo[1,2-c]pyrimidin-5-yl)-8-azaspiro[4.5]decan-1-amine], the IC50 in experiment [2] and in experiment [3] was 0.1 to 1 µM in each case.

For the compound `N[C@@H]1CCCC12CCN(c1ncc(Sc3ccncc3Cl)c3ncnn13)CC2` [(R)-8-(8-((3-chloropyridin-4-yl)thio)-[1,2,4]triazolo[1,5-c]pyrimidin-5-yl)-8-azaspiro[4.5]decan-1-amine], the IC50 in experiment [2] and in experiment [3] was 1 to 10 µM in each case. As to `N[C@@H]1CCCC12CCN(c1ncc(Sc3cccc4ccccc34)c3nncn13)CC2` [(R)-8-(8-(naphthalen-1-ylthio)-[1,2,4]triazolo[4,3-c]pyrimidin-5-yl)-8-azaspiro[4.5]decan-1-amine], the results for the half-inhibitory concentration (IC50) in experiment [2] and in experiment [3] were less than 0.1 µM and 0.1 to 1 µM, respectively. With `N[C@@H]1CCCC12CCN(c1ncc(Sc3ccccc3)c3nccn13)CC2` [(R)-8-(8-(phenylthio)imidazo[1,2-c]pyrimidin-5-yl)-8-azaspiro[4.5]decan-1-amine], the 50% inhibitory concentration (IC50) in experiment [2] and in experiment [3] was 0.1 to 1 µM in each case. Regarding `N[C@@H]1CCCC12CCN(c1ncc(Sc3cccc(NC(=O)c4c(O)nc5n(c4=O)CCCC5)c3Cl)c3nccn13)CC2` [(R)-N-(3-((5-(1-amino-8-azaspiro[4.5]decan-8-yl)imidazo[1,2-c]pyrimidin-8-yl)thio)-2-chlorophenyl)-2-hydroxy-4-oxo-6,7,8,9-tetrahydro-4H-pyrido[1,2-a]pyrimidin-3-carboxamide], the IC50 in experiment [2] and in experiment [3] was 0.1 to 1 µM throughout. `N[C@@H]1COCC12CCN(c1ncc(Sc3cccc(Cl)c3Cl)c3nccn13)CC2` [(S)-8-(8-((2,3-dichlorophenyl)thio)imidazo[1,2-c]pyrimidin-5-yl)-2-oxa-8-azaspiro[4.5]decan-4-amine]: the values for the IC50 in experiment [2] and in experiment [3] were less than 0.1 µM and 0.1 to 1 µM, respectively. In the same order, the values of `N[C@@H]1COCC12CCN(c1ncc(Sc3ccnc(Cl)c3Cl)c3nncn13)CC2` [(S)-8-(8-((2,3-dichloropyridin-4-yl)thio)-[1,2,4]triazolo[4,3-c]pyrimidin-5-yl)-2-oxa-8-azaspiro[4.5]decan-4-amine] are 0.1 to 1 µM and 0.1 to 1 µM.

Turning to `Nc1cc(Sc2cnc(N3CCC4(CC3)COC[C@H]4N)n3cnnc23)c(Cl)c(Cl)n1` [(S)-8-(8-((6-amino-2,3-dichloropyridin-4-yl)thio)-[1,2,4]triazolo[4,3-c]pyrimidin-5-yl)-2-oxa-8-azaspiro[4.5]decan-4-amine], the IC50 is less than 0.1 µM in experiment [2] and 1 to 10 µM in experiment [3].

As for `COC(=O)c1ccccc1Sc1cnc(N2CCC3(CCC[C@H]3N)CC2)n2ccnc12` [Methyl (R)-2-((5-(1-amino-8-azaspiro[4.5]decan-8-yl)imidazo[1,2-c]pyrimidin-8-yl)thio)benzoate], the half-inhibitory concentration (IC50) in experiment [2] and in experiment [3] was 0.1 to 1 µM each time. Regarding `CC1(N)CCN(c2cnc(-c3cccc(Cl)c3Cl)c(N)n2)CC1` [SHP099, 6-(4-amino-4-methylpiperidin-1-yl)-3-(2,3-dichlorophenyl)pyrazin-2-amine, reference compound], in experiment [1] (Homo sapiens, MOLM-13, read-out: p-ERK IC50), the half-inhibitory concentration (IC50) was 2.07 µM.
